# Tested on: mechanical hyperalgesia after nerve ligation
# Assay: Neuropathic pain model, spinal nerve constriction, von Frey paw withdrawal threshold
# Assay type: in vivo, rat
# Settings: 90 mg/kg sc, tested 45 minutes after dosing
# Protocol: Adult male Sprague-Dawley rats received unilateral constriction of the L6 nerve to produce chronic nerve injury. Following recovery from surgery (3–7 days post operative) animals were tested for paw withdrawal threshold to mechanical stimuli applied to the affected paw. This was determined by the application of calibrated von Frey monofilaments to the plantar surface of each hindpaw. Only animals with a 50% decrease in withdrawal threshold in the ligated paw were employed in the study, and were randomly assigned to one of 6 groups: three groups receiving one of three doses of HP 184 (0.3, 3 and 20 mg/kg, po), a fourth group receiving a single dose of another compound referred to MDL (10 mg/kg, ip), a fifth group receiving gabapentin (90 mg/kg, sc), and a sixth group receiving vehicle only. Behavioral testing occurred 45 minutes following the gabapentin (90 mg/kg, sc), and 3 hours following the HP 184, MDL, and vehicle. A difference score between the ligated and non-ligated paw withdrawal thresholds is calculated for each animal, and these differences were subjected to ANOVA with group as the main factor. […] Analysis was between/within repeated measures ANOVA. […]
structure (smiles),measurement,value
"NCC1(CC(=O)O)CCCCC1 [gabapentin, reference compound]","mechanical hyperalgesia, difference of ligated minus normal paw withdrawal threshold, FIG. 10",clear reversal of hyperalgesia

# Source: US7179821B2, “Method of treating of demyelinating diseases or conditions” (Aventis Pharmaceuticals Inc., priority 2001, dated 2007)
